The results in this text go back to patent US11559517B2, “Promotion of epithelial repair” (Telethon Kids Institute, priority 2018, dated 2023).

Structures are written as SMILES. Entries after “also recorded” stand apart in the source; their conditions may differ.

Holding throughout (assay type): cell-based, human
The test system of data set [1] is pAEC from non-asthmatic children. In words: MTS cell viability assay, pAEC from non-asthmatic children. The method, then:
(§1) Cell viability was assessed using a 3-[4,5-dimethylthiazol-2yl]-5-[3-carboxymethoxyphenyl]-2-[4-sulfophenyl]-2H-tetrazolium inner salt (MTS) assay (Promega).
Cell viability was assessed using a 3-[4,5-dimethylthiazol-2yl]-5-[3-carboxymethoxyphenyl]-2-[4-sulfophenyl]-2H-tetrazolium inner salt (MTS) assay (Promega, Madison, Wis., USA). […]
(Tetrazolium assays rely on reduction of a dye to a coloured formazan, in cell work by metabolically active cells.)

The test system of data set [2] is integrin α5. In words: On-Cell Western assay of integrin α5 cell membrane expression, pAEC from non-asthmatic children. Here is the method: (§2) Cells were plated at 1.2×10^5 cells/cm^2 onto 96-well plates precoated with fibronectin ([…]) and maintained as described earlier. Briefly, following relevant treatments and controls, confluent cell monolayers were fixed with 10% (v/v) NBF for 20 minutes at room temperature and then either permeabilized with 0.1% (v/v) Triton X-100 or incubated with PBS for 25 minutes. Cells were blocked for 90 min at room temperature with the Odyssey® blocking buffer (PBS) (LI-COR Biosciences). Cells were then stained with rabbit anti-human integrin α5 (1:100; clone EPR7854, Abcam), mouse anti-human integrin β1 (1:1000; clone P5D2, Abcam), rabbit anti-human phospho-Akt (Ser473) (1:100; clone D9E, Abcam) or mouse anti-human total Akt (pan) (1:100; clone 40D4, Abcam) for 24 hours at 4° C. Antibody binding was determined using IRDye 800 CW-conjugated goat anti-rabbit IgG (1:800; 925-32211, LI-COR Biosciences) and goat anti-mouse IgG (1:800; 925-32210, LI-COR Biosciences), as well as DRAQ5 (1:10000; DR50200, BioStatus Limited) and Sapphire700 (1:1000; 928-40022, LI-COR Biosciences) for cell number normalization, for 1 hour at RT with gentle shaking in the dark. Specific antibody staining for protein expression was then immediately visualized and quantified using an infrared imaging system (LI-COR Biosciences).
After this, cells were washed in 1× phosphate-buffered saline (PBS) and incubated with IRDye-conjugated secondary antibody (1:800 goat anti-rabbit and goat anti-mouse IgG, LI-COR Biosciences, Lincoln, Nebr., USA) containing DRAQ5 (1:10000, BioStatus Limited, Shepshed, United Kingdom) and Sapphire700 (1:1000, LI-COR Biosciences, Lincoln, Nebr., USA) for 1 hour at RT with gentle shaking in a dark room. Cells were then washed for an additional five times in PBS. Specific antibody staining for protein expression was then immediately visualized using an infrared imaging system (LI-COR Biosciences, Lincoln, Nebr., USA

The test system of data set [3] is leading edge pAEC from non-asthmatic children. The data set is described as follows: Leading edge cell tracking after scratch wounding, pAEC from non-asthmatic children. The following applies: Wortmannin 0.01-10 μM, MK2206 0.01-5 μM. Here is the method: (§3) Manual Tracking, an ImageJ2 plugin publicly available was utilized for its capacity to manually track cells in two dimensions, the x and y planes. […] The selected cells were tracked over the first 12 h post wounding, where this procedure generated x and y coordinates for the position of the nucleus of each tracked cell at each time point. The x,y coordinates of the tracked cells were exported in a tab delimited format and all tracks were transformed to migrate up towards the y-axis. Graphical representation and analysis of the cell migration parameters was performed using the Chemotaxis and Migration Tool 2.0 (Ibidi®, Martinsried, Bayern, Germany). […] Migration parameters of cell tracks were then quantified including; (1) distance migrated (μm) which represented the displacement of a cell from the start to its endpoint, (2) velocity (μm/min), which is a function of displacement overtime, and (3) directionality (AU), which represents a measurement of the directness or straightness of a cell trajectory and was calculated as a ratio of the cell displacement over the accumulated distance migrated. […] Since directionality is not a direct measure of chemotaxis, the determined forward migration index (FMI) (AU) was then utilized to represent the efficiency of the leading edge cells to migrate towards the center of the wounded area. […]

Data set [4] deals with integrin β1. The data set is described as follows: On-Cell Western assay of integrin β1 cell membrane expression, pAEC from non-asthmatic children. The settings on record: MK2206; 12 h treatment. Here is the method:
(§4) Cells were plated at 1.2×10^5 cells/cm^2 onto 96-well plates precoated with fibronectin ([…]) and maintained as described earlier. Briefly, following relevant treatments and controls, confluent cell monolayers were fixed with 10% (v/v) NBF for 20 minutes at room temperature and then either permeabilized with 0.1% (v/v) Triton X-100 or incubated with PBS for 25 minutes. Cells were blocked for 90 min at room temperature with the Odyssey® blocking buffer (PBS) (LI-COR Biosciences). Cells were then stained with rabbit anti-human integrin α5 (1:100; clone EPR7854, Abcam), mouse anti-human integrin β1 (1:1000; clone P5D2, Abcam), rabbit anti-human phospho-Akt (Ser473) (1:100; clone D9E, Abcam) or mouse anti-human total Akt (pan) (1:100; clone 40D4, Abcam) for 24 hours at 4° C. Antibody binding was determined using IRDye 800 CW-conjugated goat anti-rabbit IgG (1:800; 925-32211, LI-COR Biosciences) and goat anti-mouse IgG (1:800; 925-32210, LI-COR Biosciences), as well as DRAQ5 (1:10000; DR50200, BioStatus Limited) and Sapphire700 (1:1000; 928-40022, LI-COR Biosciences) for cell number normalization, for 1 hour at RT with gentle shaking in the dark. Specific antibody staining for protein expression was then immediately visualized and quantified using an infrared imaging system (LI-COR Biosciences). […]

The subject of data set [5] is Akt (serine residue 473). In words: In-Cell Western assay of Akt phosphorylation, pAEC from non-asthmatic children. The settings on record: concentration series (Wortmannin 0.01-10 μM, MK2206 0.01-5 μM); 12 h and 48 h post treatment. Here is the method:
as §2

Data set [6] concerns pAEC from non-asthmatic children. In words: Scratch wound repair assay (wound closure), pAEC from non-asthmatic children. The settings on record: treated at time of scratch wounding; Wortmannin 0.01-10 μM, MK2206 0.01-5 μM. The method, then: (§5) Two in vitro scratch wound models were used. […] Wound closure was calculated through image analysis by the accompanying live-cell imaging system (Essen Bioscience, Ann Arbor, Mich., USA).
(§6) To assess in vitro wound repair kinetics, linear scratch wounds were created using a commercial monolayer wounding kit. Once confluent, cell cultures were placed in starvation media (BEGM™ without epidermal growth factor) for about 24 hours prior to wounding. At the time of wounding, cell cultures were treated with compound dilution (10 μM), DMSO vehicle (0.05% v/v) or untreated. Wound closure rates were calculated through image analysis by the accompanying live-cell imaging system (Essen Bioscience, Ann Arbor, Mich., USA).

Data set [7] concerns pAEC from asthmatic children. In words: Scratch wound repair assay (wound closure), pAEC from asthmatic children. The settings on record: for accelerated repair compared to DMSO vehicle: 10 μM, 48 hours treatment post wounding; for promotion of pAEC repair relative to celecoxib: screen at 10 μM, cohort not given. The method, then:
as §5, §6

Data set [8] concerns pAEC from asthmatic children. In words: MTS cell viability assay, pAEC from asthmatic children. Here is the method:
as §1
Cell viability was assessed using a 3-[4,5-dimethylthiazol-2yl]-5-[3-carboxymethoxyphenyl]-2-[4-sulfophenyl]-2H-tetrazolium inner salt (MTS) assay (Promega, Madison, Wis., USA). Once confluent, cell cultures were treated with 10 μM compound, DMSO vehicle (0.05% v/v) or untreated for 48 hours.

For data set [9], the system named is Akt (serine residue 473). In words: In-Cell Western assay of Akt phosphorylation, pAEC from asthmatic children. The following applies: SC79 0.5-20 μM; 12 h and 48 h post treatment. The method, then: as §2
The test system of data set [10] is integrin α5. In words: On-Cell Western assay of integrin α5 cell membrane expression, pAEC from asthmatic children. The following applies: 0.5, 2 and 5 μM SC79; 12 h and 48 h. Here is the method: as §4
The subject of data set [11] is pAEC from asthmatic children. The data set is described as follows: Scratch wound repair assay (wound closure), pAEC from asthmatic children. The settings on record: SC79 0.5-20 μM at time of scratch wounding.
Data set [12] concerns leading edge pAEC from asthmatic children. The data set is described as follows: Leading edge cell tracking after scratch wounding, pAEC from asthmatic children. The following applies: SC79 0.5-20 μM. Here is the method: as §3
Data set [13] deals with integrin β1. The data set is described as follows: On-Cell Western assay of integrin β1 cell membrane expression, pAEC from asthmatic children. The following applies: 0.5, 2 and 5 μM SC79; 12 h and 48 h. The method, then: as §4
Setting [14] is: 0.01, 0.1, 1 μM (all concentrations bar the highest).
Where [15] appears, read: 10 μM, 48 hours, change of less than or equal to 20% relative to DMSO vehicle considered non-cytotoxic.

For the compound `NC1(c2ccc(-c3nc4ccn5c(=O)[nH]nc5c4cc3-c3ccccc3)cc2)CCC1` [MK2206], in [1] (setting [14]), the “cell viability (MTS)” value is given as “did not cause significant cytotoxicity”. For the same compound, the “integrin α5 cell membrane expression” value with integrin α5 [2] (1 μM MK2206, 48 h) is “significant inhibition; also recorded: Significant reduction”; in the data set on integrin α5 [2] (MK2206, concentration-dependent, 12 h treatment), “concentration-dependent inhibition; also recorded: significant reduction of integrin α5”; in the data set with integrin α5 [2] (lower concentrations of MK2206 (below 1 μM), 48 h), “not with the lower concentrations”. Moreover, the “leading edge cell migration (distance migrated, velocity, directionality, yFMI)” value in data set [3] was “significant inhibition; also recorded: inhibited distance migrated, velocity, directionality and centrality (yFMI)”. The “integrin β1 cell membrane expression” value in the data set on integrin β1 [4] is “did not have a significant effect”. Besides, the “activation/phosphorylation of Akt (Ser473)” value with Akt (serine residue 473) [5] is given as “significant inhibition; also recorded: inhibited activation of Akt”. The “wound closure rates (effect in words)” value in data set [6] is listed as “significant inhibition; also recorded: concentration-dependent reduction in wound closure rates”.
On to `NS(=O)(=O)c1ccccc1` [Compound C2, Benzenesulfonamide], for which the “accelerated repair compared to DMSO vehicle” value in data set [7] was “no improvement”.
Still for that read-out and setting: the value for `CN1C(C(=O)Nc2ccccn2)=C(O)c2ccccc2S1(=O)=O` [Compound C13, Piroxicam] was “no improvement”.
In the case of `Cc1ccc(-c2cc(C(F)(F)F)n[nH]2)cc1` [Compound C19, 3-Trifluoromethy1-5-(p-tolyl)-1H-pyrazole], in [7], the “accelerated repair compared to DMSO vehicle” value is listed as “no improvement”.
On to `Cc1ccc(C)c(-c2cc(C(F)(F)F)nn2-c2ccc(S(N)(=O)=O)cc2)c1` [Compound C6, 2,5-Dimethyl-Celecoxib], for which the “promotion of pAEC repair relative to celecoxib” value in data set [7] is on record as “comparable efficacy”.
With `CCOC(=O)C1=C(N)Oc2ccc(Cl)cc2C1C(C#N)C(=O)OCC` (stereo not drawn) [SC79, 2-Amino-6-chloro-α-cyano-3-(ethoxycarbonyl)-4H-1-benzopyran-4-acetic acid ethyl ester], the “cell viability (MTS)” value in data set [8] (SC79 0.5, 2, 5, 10, 20 μM) was “did not alter cell viability; also recorded: did not cause significant cytotoxicity”. The “phosphorylation of Akt (Ser473)” value in the data set with Akt (serine residue 473) [9] was “augment Akt signaling in a concentration-dependent manner; also recorded: resulted in phosphorylation of Akt”. In the data set with integrin α5 [10], the “integrin α5 cell membrane expression” value is “restored their integrin α5 and β1 expression to equivalent levels to those of non-asthmatic children; also recorded: Significant activation”. Moreover, the “wound closure rates (effect in words)” value in data set [11] is “significantly enhanced wound closure; also recorded: concentration-dependent increase in wound closure rates”. In addition, the “leading edge cell migration (distance migrated, velocity, directionality, yFMI)” value in data set [12] was “stimulated leading edge cell migration; also recorded: stimulated distance migrated, velocity, directionality and centrality (yFMI)”. Moreover, the “integrin β1 cell membrane expression” value with integrin β1 [13] is “restored their integrin α5 and β1 expression to equivalent levels to those of non-asthmatic children; also recorded: Significant activation”.
For the compound `CC(=NNc1ccc(S(N)(=O)=O)cc1)c1ccc(C)cc1` [Compound C11], in data set [7], the “accelerated repair compared to DMSO vehicle” value is given as “no improvement”.
For the compound `O=C(O)c1cc(/N=N/c2ccc(S(=O)(=O)Nc3ccccn3)cc2)ccc1O` [Compound C15, Sulfasalazine], the “accelerated repair compared to DMSO vehicle” value in [7] is on record as “no improvement”.
For `CS(=O)(=O)c1ccc(-n2nc(C(F)(F)F)cc2-c2ccc(F)cc2)cc1` [Compound C22, 5-(4-fluorophenyl)-1-[4-(methylsulfonyl)phenyl]-3-(trifluoromethyl)-1H-pyrazole], the “promotion of pAEC repair relative to celecoxib” value in data set [7] is reported as “to a greater degree than celecoxib”.
As to `Cc1ccc(C)c(-c2cc(C(F)(F)F)nn2-c2ccc(S(N)(=O)=O)cc2)c1` [dimethyl-Celecoxib], the “cell viability (MTS)” value in [8] (0.01, 0.1, 1, 10 μM) is “did not cause significant cytotoxicity”; in [8] (0.01, 0.1, 1, 10 μM, listed as dimethyl-celecoxib), “not cytotoxic”.
On to `Nc1ccc(S(N)(=O)=O)cc1` [Compound C17, Sulfanilamide], for which the “accelerated repair compared to DMSO vehicle” value in data set [7] was “no improvement”.
Consider `COC[C@H]1OC(=O)c2coc3c2[C@@]1(C)C1=C(C3=O)[C@@H]2CCC(=O)[C@@]2(C)C[C@H]1OC(C)=O` [Wortmannin], for which the “cell viability (MTS)” value in data set [1] (10 μM Wortmannin) was “significant loss of viability”; in data set [1] (setting [14]), “did not have a significant cytotoxic effect; also recorded: did not cause significant cytotoxicity”.
For `Cc1ccc(-c2cc(C(F)(F)F)nn2-c2ccc(S(N)(=O)=O)cc2)cc1` [Compound C3, Celecoxib], the “cell viability (MTS)” value is listed as “did not display any change in cell viability” in data set [8] (setting [15]); “did not cause significant cytotoxicity” in data set [8] (0.01, 0.1, 1, 10 μM, listed as Celecoxib); “not cytotoxic” in data set [8] (0.01, 0.1, 1, 10 μM, listed as celecoxib); “did not display any change in cell viability” in data set [1] (setting [15]).
